The values that follow are results of earlier work, collected in patent publication US20140228218A1, “PARAFFINIC OIL AND CLASS B GIBBERELLIN BIOSYNTHESIS INHIBITOR COMPOSITIONS” (SUNCOR ENERGY INC., priority 2011, published 2014).

The data set concerns the plant being treated. To be noted: in vivo.

Turning to `CC(C)(C)[C@@H](O)[C@@H](Cc1ccc(Cl)cc1)n1cncn1` (relative stereo) [paclobutrazol, (±)-(R*,R*)-beta-[(4-chlorophenyl)methyl]-alpha-(1,1-dimethylethyl)-1H-1,2,4-triazole-1-ethanol], the “phytotoxicity to the plant being treated (in words)” value was “can cause phytoxicity”.
